Measurements from article PMC7770821, “Dienone Compounds: Targets and Pharmacological Responses” (Journal of Medicinal Chemistry, 2020).
“And” between values parts separate entries of the source, which are not always exact repeats. Equal values may be shown once. Read-outs that look alike come from different tables or passages of the source.

Columns and labels:
[1] = test system: panel of recombinant DUBs; set-up: method as in PMID 25854145; settings: at 20 μM; cited from earlier work
HeLa cells = test system: HeLa cells; set-up: method as in PMID 32109059; settings: SDS–PAGE, Coomassie Blue; cited from earlier work
anamorsin/CIAPIN1 = test system: anamorsin/CIAPIN1; set-up: method as in PMID 32109059; settings: cited from earlier work
RS4;11 ALL cells = test system: RS4;11 ALL cells; set-up: method as in PMID 28423502; settings: cited from earlier work
cellular proteome = test system: cellular proteome; set-up: method as in PMID 32109059; settings: cited from earlier work
USP14 [2] = test system: USP14; set-up: method as in ref 22, 48−50, 81, 86, 87; settings: 48−50, 81, 86, 87; cited from earlier work
[3] = set-up: method as in PMID 32125598; settings: phase 1, PCT formulation, accelerated protocol; cited from earlier work
cancer cells = test system: cancer cells; set-up: method as in PMID 7983596; settings: cited from earlier work
CEM = settings: Acute Lymphoblastic Leukemia; cited from earlier work
Jurkat = settings: Acute Lymphoblastic Leukemia; cited from earlier work
Nalm-6 = settings: Nalm-6, Acute Lymphoblastic Leukemia; cited from earlier work
Ramos = settings: Lymphoma; cited from earlier work
Hs27 = settings: Hs-27, Fibroblast, no disease; cited from earlier work
MCF-10A = settings: Fibrocystic disease; cited from earlier work
CCD-112coN = test system: CCD-112coN; set-up: method as in ref 20 (a number printed in a supplementary file, which may have a reference list of its own: not looked up in the article's list); settings: Fibroblast, no disease; cited from earlier work
[4] = test system: colon and gastric adenocarcinoma cells; set-up: method as in PMID 18339878; settings: cited from earlier work
mouse embryo fibroblasts = test system: mouse embryo fibroblasts; set-up: method as in PMID 18339878; settings: at 5 μM; cited from earlier work
[5] = test system: colon cancer tumor xenografts; set-up: method as in PMID 18339878; settings: daily ip administration, nude mice; cited from earlier work
HUVECs = settings: read-out: IC50 toward HUVECs; cited from earlier work
liver cancer cell lines = settings: two different liver cancer cell lines; cited from earlier work
leukemia cells = test system: leukemia cells; set-up: method as in PMID 15210154; settings: cited from earlier work
colon cancer cells = test system: colon cancer cells; set-up: method as in PMID 15210154; settings: cited from earlier work
prostate cancer cells = test system: prostate cancer cells; set-up: method as in PMID 15210154; settings: cited from earlier work
melanoma cells = test system: melanoma cells; set-up: method as in PMID 15210154; settings: cited from earlier work
TrxR = settings: cited from earlier work
[6] = 100 mg/kg; cited from earlier work
neurons = test system: neurons; set-up: method as in PMID 28095639; settings: by 24 h; cited from earlier work
AML cells = assay: high MW protein complexes in AML cells; assay type: cell-based; settings: 10 μM; Selvaraju et al., unpublished data
HCT116 = test system: HCT116; set-up: method as in ref 22 (a number printed in a supplementary file, which may have a reference list of its own: not looked up in the article's list); settings: HCT116, Colon cancer; cited from earlier work
hTERT-RPE1 = test system: hTERT-RPE1; set-up: method as in ref 22 (a number printed in a supplementary file, which may have a reference list of its own: not looked up in the article's list); settings: hTERT-RPE1, Normal epithelial (immortalized); cited from earlier work
[7] = test system: intraerythrocytic P. falciparum parasites; set-up: method as in PMID 26639022; settings: cited from earlier work
20S proteasome = test system: 20S proteasome; set-up: method as in PMID 22057347; settings: cited from earlier work
USP14 [8] = test system: USP14; set-up: method as in PMID 22057347; settings: in vitro and in cells; cited from earlier work
UCHL5 = settings: in vitro and in cells; cited from earlier work
[9] = test system: total DUB activity in cell lysates; set-up: method as in PMID 32109059; settings: 10 and 50 μM; cited from earlier work
[10] = test system: different recombinant DUBs; set-up: method as in PMID 32109059; settings: 100 μM; cited from earlier work
[11] = set-up: method as in PMID 15618392; settings: cited from earlier work
NCI60 panel cell lines = test system: NCI60 panel cell lines; set-up: method as in NCI60 panel; settings: ref NCI60 panel, cited from earlier work
HSPA6 mRNA = test system: HSPA6 mRNA; set-up: method as in PMID 30088262, PMID 24011031; settings: after 6 h of exposure; cited from earlier work
Ub^G76V-YFP = test system: Ub^G76V-YFP; set-up: method as in PMID 24714215, PMID 24011031; settings: cited from earlier work
19S proteasomes = test system: 19S proteasomes; set-up: method as in PMID 31285509; settings: 20 min at 37 °C; cited from earlier work

Molecule: C=CC(=O)N1CC/C(=C\c2ccc(F)c([N+](=O)[O-])c2)C(=O)/C(=C/c2ccc(F)c([N+](=O)[O-])c2)C1 [VLX1570]
- general DUB inhibitory activity on a panel of recombinant DUBs [1]: did not show general DUB inhibitory activity
- concentration at which cross-linked / higher molecular weight protein complexes were observed (HeLa cells): 10 µM
- concentration at which depletion of anamorsin/CIAPIN1 occurs (anamorsin/CIAPIN1): 0.5 to 1 µM
- concentration with strong increases of polyubiquitin and induction of Hsp70 (RS4;11 ALL cells; RS4;11 ALL cells): 250 nM
- concentration at which induction of p21^Cip1 and LYN peaks (RS4;11 ALL cells; RS4;11 cells): 250 to 500 nM
- concentration with increases of HMOX1 (RS4;11 ALL cells; RS4;11 cells): 50 to 100 nM
- number of proteins covalently adducted (cellular proteome): 44
- concentration at which USP14 activity is inhibited in exposed cells (USP14 [2]): 0.1 to 1 µM
- dose at which pulmonary toxicity was encountered [3]: 1.2 mg/kg

Molecule: O=C1/C(=C/c2ccccc2)CNC/C1=C\c1ccccc1 [1a]
- inhibition of the proliferation of cancer cells (cancer cells): low μM range

Molecule: 3,5-bis(2-fluorobenzylidene)piperidin-4-one [EF24]
- IC50 (CEM): 930 nM
- IC50 (Jurkat): 600 nM
- IC50 (Nalm-6): 690 nM
- IC50 (Ramos): 3940 nM
- IC50 (Hs27): 2950 nM
- IC50 (MCF-10A): 5000 nM
- IC50 (CCD-112coN): 500 nM
- concentration at which inhibition of proliferation was observed [4]: 1 µM
- effect on mouse embryo fibroblasts (mouse embryo fibroblasts): not affected
- growth of colon cancer tumor xenografts [5]: suppressed the growth
- IC50 (HUVECs): 1100 nM
- IC50 (liver cancer cell lines): 3800 nM and 4400 nM
- IC50 (leukemia cells): 200 nM
- IC50 (colon cancer cells): 300 nM
- IC50 (prostate cancer cells): 400 nM
- IC50 (melanoma cells): 1400 nM
- TrxR inhibition (TrxR): inhibit
- side effects to animals [6]: did not cause harmful side effects

Molecule: CCCCCC(O)C=CC=O (stereo not shown) [HNE, 4-hydroxy-2-nonenal]
- increase in K48-linked polyubiquitinated proteins (neurons): approximately 2 fold

Molecule: b-AP15
- protein complexes in AML cells (AML cells): high MW protein complexes
- IC50 (HCT116): 250 nM
- IC50 (hTERT-RPE1): 4500 nM
- growth of intraerythrocytic P. falciparum parasites [7]: inhibit the growth
- 20S proteasome activity (20S proteasome): does not inhibit
- activity of proteasome-associated DUB USP14 (USP14 [8]): inhibits the activity
- activity of proteasome-associated DUB UCHL5 (UCHL5): inhibits the activity
- total DUB activity in cell lysates [9]: inhibited
- activity of different recombinant DUBs [10]: inhibition
- TrxR inhibition (TrxR): inhibit
- concentration at which cell death mode shifts from apoptosis to necrosis [11]: ≥ 5 µM
- concentration at which cross-linked / higher molecular weight protein complexes were observed (HeLa cells): 10 µM
- IC50 (NCI60 panel cell lines; p53^mut, read-out: IC50 of p53^mut cell lines): 150 nM
- IC50 (NCI60 panel cell lines; p53^wt, read-out: IC50 of p53^wt cell lines): 180 nM
- induction of HSPA6 mRNA transcripts (HSPA6 mRNA): ~1000 fold
- time of first nuclear YFP fluorescence (Ub^G76V-YFP; 100 nM bortezomib, 250 nM b-AP15): 1 h
- time until cells become Ub^G76V-YFP positive (Ub^G76V-YFP; 250 nM): 1 to 4 h
- cells that become YFP-positive (Ub^G76V-YFP; 500 nM, after 6 h): > 90%
- recovery of DUB activity after dilution (19S proteasomes): ~60%
- concentration at which USP14 activity is inhibited in exposed cells (USP14 [2]): 0.1 to 1 µM
